According to patent publication US20240252546A1, “NEURITE OUTGROWTH PROMOTION KIT AND USE THEREFOR” (KEIO UNIVERSITY, priority 2021, published 2024):

Experiments:
Type in all cases: cell-based, human
[1] = system: nerve cells induced from neurospheres derived from 201B7 cells; experiment: Neurite outgrowth of nerve cells differentiated from γ-secretase inhibitor-treated neurospheres (Experimental Example 1); details: for neurite outgrowth, Tau protein immunostaining / neurite outgrowth (length of the neurite), βIII-tubulin immunostaining: 201B7 neurospheres cultured 24 hours with inhibitor (10 μM DAPT, 1 μM Compound 34), differentiated 14 days; for neurite outgrowth (length of the neurite), βIII-tubulin immunostaining: vs control and other γ-secretase inhibitors
Description: Various γ-secretase inhibitors were allowed to act on neurospheres derived from human iPS cells. Subsequently, each neurosphere was induced to differentiate into nerve cells, and the neurite outgrowth was examined. The following inhibitors were used as γ-secretase inhibitors: DAPT (CAS Number: 208255-80-5), Compound 34 (CAS Number: 564462-36-8), L-685,458 (CAS Number: 292632-98-5), LY411575 (CAS number: 209984-57-6), Sulindac (CAS number: 38194-50-2, which is also an anti-inflammatory drug), and Compound E (CAS number: 209986-17-4).
First, 201B7 cells, which are cells of a human iPS cell line, were differentiated into neurospheres. 3 μM SB431542 (Tocris Bioscience, catalog number: “301836-41-9”) and 150 nM LDN193189 (StemRD Inc., catalog number: “1062368-24-4”) were added to a culture medium of 201B7 cells, and the cells were treated for 6 days.
Subsequently, the cells were dissociated and seeded in a cell culture dish (product name: “ultralow-attachment culture dish”, Corning Incorporated) at a cell density of 1× 10^5 cells/mL in a nerve induction medium, and then cultured for 6 days in a hypoxic and moist environment (4% O2 and 5% CO2) to carry out differentiation into neurospheres.
The culture medium used as the nerve induction medium was a culture medium obtained by adding a 2% B27 supplement (without vitamin A, Thermo Fisher Scientific, Inc., catalog number: “17504-044”), 20 ng/ml of FGF2 (PeproTech, Inc.), 10 μM Y27632 (Sigma-Aldrich Co., LLC, catalog number: “146986-50-7”), 1 μM retinoic acid (RA, Sigma-Aldrich Co., LLC, catalog number: “R2625-1G”), 3 μM CHIR 99021 (ReproCELL Inc., catalog number: “04-0004”), and 10 μM SB431542 (Calbiochem, catalog number: “301836-41-9”), to an MHM medium of which the composition is shown in Table 1 below.
Subsequently, the formed neurospheres were dissociated into single cells, the single cells were passaged in a modified nerve induction medium and cultured for 6 days in a hypoxic environment (4% O2). The culture medium used as the modified nerve induction medium was a culture medium obtained by adding a 2% B27 supplement (without vitamin A, catalog number: “17504-044”, Thermo Fisher Scientific, Inc.), 20 ng/ml of FGF2 (PeproTech, Inc.), 10 μM Y27632 (catalog number: “146986-50-7”, Sigma-Aldrich Co., LLC), and 1 μM retinoic acid (RA, catalog number: “R2625-1G”, Sigma-Aldrich Co., LLC), to an MHM medium of which the composition is shown in Table 1 above.
Subsequently, neurospheres were cultured for 24 hours in the presence of each γ-secretase inhibitor. Each inhibitor was added to a culture medium of the neurosphere so that the final concentration was 10 μM for DAPT, 1 μM for Compound 34, 10 μM for L-685,458, 10 μM for LY411575, 10 μM for Sulindac, and 5 μM for Compound E. In addition, a control group cultured in the absence of a γ-secretase inhibitor was also prepared.
Subsequently, each neurosphere was seeded on a 48-well chamber slide (IWAKI & CO., LTD.) coated with poly-L-ornithine/fibronectin, cultured for 14 days in a culture medium containing no growth factor at 37° C. in an environment of 95% air and 5% CO2, and differentiated into nerve cells.
Subsequently, each of the obtained nerve cells was fixed with 4% paraformaldehyde in 0.1 M PBS, and each of βIII-tubulin, which is a nerve cell marker, and the Tau protein, which is frequently distributed in axons, was immunostained, and the length of the neurite was measured.
FIG. 2 is a graph in which the results of FIGS. 1(a) to 1(g) are quantified. […]

phosphorylated p38 = experiment: Immunostaining of phosphorylated p38 in treated neurospheres (Experimental Example 3); details: 201B7 neurospheres; 10 μM DAPT, 1 μM Compound 34, 24 hours; vs control
Procedure: (§1) Neurospheres derived from 201B7 cells were treated with various γ-secretase inhibitors in the same manner as in Experimental Example 1. As the γ-secretase inhibitor, DAPT, Compound 34, L-685,458, LY411575, Sulindac, and Compound E were used at the same concentrations as in Experimental Example 1. Subsequently, each neurosphere was fixed with paraformaldehyde and subjected to immunostaining of phosphorylated p38.
FIG. 5 is a graph showing the results obtained by quantifying the amount of the phosphorylated p38 in the neurosphere which had been treated with each of the γ-secretase inhibitors. In FIG. 5, “Ctl” indicates the result obtained from the control, “DAPT” indicates the result obtained by the DAPT treatment, “C. 34” indicates the result obtained by Compound 34 treatment, “L-685” indicates the result obtained by the L-685,458 treatment, “LY” indicates the result obtained by the LY411575 treatment, “Suli” indicates the result obtained by the Sulindac treatment, and “Com. E” indicates the result obtained by the Compound E treatment.

phosphorylated CDC25B = experiment: Immunostaining of phosphorylated CDC25B in treated neurospheres (Experimental Example 4); details: 201B7 neurospheres; 10 μM DAPT, 1 μM Compound 34, 24 hours; vs control
Procedure: as §1, with “CDC25B.” for “p38.”
FIG. 8 is a graph showing the results obtained by quantifying the amount of the phosphorylated CDC25B in the neurosphere which had been treated with each of the γ-secretase inhibitors.

CDC25B = experiment: Expression level of CDC25B by RNA-seq (Experimental Example 4); details: 201B7 neurospheres, vs control
Description: FIG. 9 is a graph showing the results obtained by treating the neurosphere derived from 201B7 cells with each of DAPT and Compound 34, carrying out the RNA-seq analysis, and quantifying the expression level of CDC25B based on transcriptome data.

Structure (SMILES)	neurite outgrowth, Tau protein immunostaining [1]	neurite outgrowth (length of the neurite), βIII-tubulin immunostaining [1]	concentration at which the neurite outgrowth-promoting effect is obtained ([1]; compared with DAPT)	amount of phosphorylated p38 in the neurosphere (phosphorylated p38)	amount of phosphorylated CDC25B in the neurosphere (phosphorylated CDC25B)	expression level of CDC25B (CDC25B)
O=C1Nc2ccccc2C(c2ccccc2)=N[C@@H]1NC(=O)[C@H](c1ccc(F)cc1)[C@@H](CO)c1ccc(F)c(F)c1 [Compound 34]	particularly promoted	particularly promoted	low concentration as compared with DAPT	significantly increased	significantly increased	slightly increased
C[C@H](NC(=O)Cc1cc(F)cc(F)c1)C(=O)N[C@H](C(=O)OC(C)(C)C)c1ccccc1 [DAPT]	particularly promoted	particularly promoted	–	significantly increased	significantly increased	slightly increased
